Assay results published in ChEMBL document CHEMBL1130451, “Synthesis and cytotoxicity of amino analogues of the potent DNA alkylating agent seco-CBI-TMI” (Bioorg Med Chem Lett, 1997).

experiment: Concentration required for 50% inhibition of growth of AA8 cells following 4 hr drug exposure; type: functional, cell-based; conditions: Cricetulus griseus, CHO-AA8, 4 h

Row | SMILES | IC50 [nM]
1 | COc1cc2cc(C(=O)N3CC(CCl)c4ccc([N+](=O)[O-])cc43)[nH]c2c(OC)c1OC (stereo not drawn) | > 40000
2 | CNc1ccc2c(c1)N(C(=O)c1cc3cc(OC)c(OC)c(OC)c3[nH]1)CC2CCl (stereo not drawn) | 220
3 | CNc1cc2c(c3ccccc13)C(CCl)CN2C(=O)c1cc2cc(OC)c(OC)c(OC)c2[nH]1 (stereo not drawn) | 0.17
4 | COc1cc2cc(C(=O)N3CC(CCl)c4ccc(N(C)C)cc43)[nH]c2c(OC)c1OC (stereo not drawn) | 280
5 | COc1cc2cc(C(=O)N3CC(CCl)c4c3cc(N(C)C)c3ccccc43)[nH]c2c(OC)c1OC (stereo not drawn) | 5.6
6 | COc1cc2cc(C(=O)N3CC(CCl)c4ccc(N)cc43)[nH]c2c(OC)c1OC (stereo not drawn) | 320
7 | COc1cc2cc(C(=O)N3CC(CCl)c4c3cc([N+](=O)[O-])c3ccccc43)[nH]c2c(OC)c1OC (stereo not drawn) | 1600
8 | COc1cc2cc(C(=O)N3CC(CCl)c4c3cc(N)c3ccccc43)[nH]c2c(OC)c1OC (stereo not drawn) | 0.43
